From PubChem BioAssay AID248 (DTP/NCI, 2004)
Values joined by “and” are separate entries in the source; they are usually repeats but may differ in a detail not shown here. Equal values may be shown once. Toxic doses and inconclusive results are not listed. Cut-off read from the data, not from the text of the source: active = T/C of 150% or more; inactive = T/C below 125%.

Test system: L1210 leukemia ip in BDF1 mice, survival T/C
Assay: NCI In Vivo Anticancer Drug Screen. Data for tumor model L1210 Leukemia (intraperitoneal) in B6D2F1 (BDF1) mice
Conditions: endpoint: mean survival time, higher = longer survival
Outline: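 Read-out is survival time, reported as the treated-group measurement over the vehicle-control measurement.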

[1] = dose: 25.0 mg/kg/injection, schedule: Q04DX002 (ip), vehicle: Klucel (hydroxypropylcellulose) (HPC)
[2] = dose: 50.0 mg/kg/injection, schedule: Q04DX002 (ip), vehicle: Klucel (hydroxypropylcellulose) (HPC)
[3] = dose: 100.0 mg/kg/injection, schedule: Q01DX009 (ip), vehicle: Klucel (hydroxypropylcellulose) (HPC)
[4] = dose: 100.0 mg/kg/injection, schedule: Q04DX002 (ip), vehicle: Klucel (hydroxypropylcellulose) (HPC)
[5] = dose: 200.0 mg/kg/injection, schedule: Q01DX009 (ip), vehicle: Klucel (hydroxypropylcellulose) (HPC)
[6] = dose: 400.0 mg/kg/injection, schedule: Q01DX009 (ip), vehicle: Klucel (hydroxypropylcellulose) (HPC)

Measured: T/C

CN(C)C(=S)S/C=C\C(=O)O
inactive: [1] 90 % of control | [2] 90 % of control | [3] 112 % of control | [4] 94 % of control | [5] 89 % of control | dose: 200.0 mg/kg/injection, schedule: Q04DX002 (ip), vehicle: Klucel (hydroxypropylcellulose) (HPC) 93 % of control and 97 % of control | [6] 99 % of control | dose: 400.0 mg/kg/injection, schedule: Q04DX002 (ip), vehicle: Klucel (hydroxypropylcellulose) (HPC) 109 % of control

Clc1ccc2c(c1)/C(=C/c1ccccc1Cl)c1cc(Cl)cc(Cl)c1-2
inactive: dose: 100.0 mg/kg/injection, schedule: Q01DX001 (ip), vehicle: Klucel (hydroxypropylcellulose) (HPC) 90 % of control | [3] 100 % of control | dose: 100.0 mg/kg/injection, schedule: Q04DX003 (ip), vehicle: Klucel (hydroxypropylcellulose) (HPC) 91 % of control | dose: 200.0 mg/kg/injection, schedule: Q01DX001 (ip), vehicle: Klucel (hydroxypropylcellulose) (HPC) 88 % of control | [5] 88 % of control | dose: 200.0 mg/kg/injection, schedule: Q04DX003 (ip), vehicle: Klucel (hydroxypropylcellulose) (HPC) 87 % of control | dose: 400.0 mg/kg/injection, schedule: Q01DX001 (ip), vehicle: Klucel (hydroxypropylcellulose) (HPC) 91 % of control | [6] 102 % of control | dose: 400.0 mg/kg/injection, schedule: Q04DX003 (ip), vehicle: Klucel (hydroxypropylcellulose) (HPC) 87 % of control

Cc1ccc2c(C)c3c(ccc4ccccc43)c[n+]2c1
inactive: dose: 0.36 mg/kg/injection, schedule: Q01DX015 (ip), vehicle: saline 110 % of control | dose: 0.55 mg/kg/injection, schedule: Q01DX015 (ip), vehicle: saline 104 % of control | dose: 0.83 mg/kg/injection, schedule: Q01DX015 (ip), vehicle: saline 110 % of control | dose: 1.25 mg/kg/injection, schedule: Q01DX015 (ip), vehicle: saline 105 % of control and 112 % of control | dose: 2.5 mg/kg/injection, schedule: Q01DX015 (ip), vehicle: saline 103 % of control | dose: 2.5 mg/kg/injection, schedule: Q04DX003 (ip), vehicle: saline 101 % of control | dose: 5.0 mg/kg/injection, schedule: Q01DX001 (ip), vehicle: saline 94 % of control | dose: 5.0 mg/kg/injection, schedule: Q01DX015 (ip), vehicle: saline 111 % of control | dose: 5.0 mg/kg/injection, schedule: Q04DX003 (ip), vehicle: saline 95 % of control | dose: 10.0 mg/kg/injection, schedule: Q01DX001 (ip), vehicle: saline 96 % of control | dose: 10.0 mg/kg/injection, schedule: Q01DX015 (ip), vehicle: saline 110 % of control and 117 % of control | dose: 10.0 mg/kg/injection, schedule: Q04DX003 (ip), vehicle: saline 111 % of control | dose: 20.0 mg/kg/injection, schedule: Q01DX001 (ip), vehicle: saline 102 % of control | dose: 20.0 mg/kg/injection, schedule: Q04DX003 (ip), vehicle: saline 113 % of control

O=C(N/N=C\c1ccc([N+](=O)[O-])cc1)c1ccccc1
inactive: dose: 100.0 mg/kg/injection, schedule: Q01DX009 (ip), vehicle: saline with Tween-80 97 % of control | dose: 200.0 mg/kg/injection, schedule: Q01DX009 (ip), vehicle: saline with Tween-80 94 % of control | dose: 400.0 mg/kg/injection, schedule: Q01DX009 (ip), vehicle: saline with Tween-80 93 % of control

CNc1cc(C(=O)O)nc(NC)n1
inactive: dose: 25.0 mg/kg/injection, schedule: Q01DX Z (ip), vehicle: saline 102 % of control | dose: 50.0 mg/kg/injection, schedule: Q01DX Z (ip), vehicle: saline 98 % of control

COC(=O)c1ccccc1NC(=O)Nc1ccccc1F
inactive: dose: 50.0 mg/kg/injection, schedule: Q01DX009 (ip), vehicle: Klucel (hydroxypropylcellulose) (HPC) 90 % of control | [3] 96 % of control | [5] 93 % of control

CC(Cc1ccccc1)n1c(-c2ccccc2)c[n+]2ccccc12 (stereo not drawn)
inactive: dose: 1.17 mg/kg/injection, schedule: Q01DX001 (ip), vehicle: other 101 % of control | dose: 2.34 mg/kg/injection, schedule: Q01DX001 (ip), vehicle: other 102 % of control | dose: 4.69 mg/kg/injection, schedule: Q01DX001 (ip), vehicle: other 102 % of control

CC(=O)OC1CCC2(C)C(CCC3C(CCC(=O)O)C(C)(CC(C)C(=O)O)CCC32)C1 (stereo not drawn)
inactive: dose: 100.0 mg/kg/injection, schedule: Q04DX003 (sc), vehicle: steriod suspending solution 116 % of control | dose: 200.0 mg/kg/injection, schedule: Q04DX003 (sc), vehicle: steriod suspending solution 109 % of control | dose: 400.0 mg/kg/injection, schedule: Q04DX003 (sc), vehicle: steriod suspending solution 113 % of control

O=C1c2ccccc2-c2ccccc2C12N=Nc1ccccc12 (stereo not drawn)
inactive: [1] 101 % of control | [2] 97 % of control | [4] 101 % of control
